± gives the uncertainty stated by the source.
Assay: xn = mol fraction of the nth substance listed

## CCCC(=O)O + CC(CC(C)(C)C)CP(=O)([O-])CC(C)CC(C)(C)C.CCCCCCCCCCCCCC[P+](CCCCCC)(CCCCCC)CCCCCC + O
298 K, 100 kPa, x2 = 0.09014, x1 = 0.601
  viscosity: 53 mPa·s
298 K, 100 kPa, x2 = 0.09759, x1 = 0.6041
  viscosity: 54 mPa·s
298 K, 100 kPa, x2 = 0.1129, x1 = 0.5867
  viscosity: 83 ± 13 mPa·s
310 K, 100 kPa, x2 = 0.08641, x1 = 0.594
  viscosity: 30 mPa·s
310 K, 100 kPa, x2 = 0.1138, x1 = 0.593
  viscosity: 47 ± 10 mPa·s
310 K, 100 kPa, x2 = 0.1346, x1 = 0.5734
  viscosity: 58 ± 15 mPa·s
310 K, 100 kPa, x2 = 0.1366, x1 = 0.07313
  viscosity: 82 ± 12 mPa·s
310 K, 100 kPa, x2 = 0.1673, x1 = 0.1732
  viscosity: 84 ± 11 mPa·s
310 K, 100 kPa, x2 = 0.1882, x1 = 0.4901
  viscosity: 87 ± 16 mPa·s
310 K, 100 kPa, x2 = 0.1908, x1 = 0.2923
  viscosity: 90 ± 10 mPa·s
310 K, 100 kPa, x2 = 0.1962, x1 = 0.4196
  viscosity: 91 ± 13 mPa·s
318 K, 100 kPa, x2 = 0.08808, x1 = 0.5881
  viscosity: 24 mPa·s
318 K, 100 kPa, x2 = 0.1141, x1 = 0.5826
  viscosity: 35 mPa·s
318 K, 100 kPa, x2 = 0.1336, x1 = 0.5507
  viscosity: 44 ± 15 mPa·s

## C[N+](C)(C)CCO.O=S(=O)([N-]S(=O)(=O)C(F)(F)F)C(F)(F)F + CC(O)CO
313.15 K, 101 kPa, x2 = 0
  viscosity: 56.4 ± 2.1 mPa·s
313.15 K, 101 kPa, x2 = 0.4786
  viscosity: 28.6 ± 1.6 mPa·s
318.15 K, 101 kPa, x2 = 0.4786
  viscosity: 23.6 ± 1.4 mPa·s
328.15 K, 101 kPa, x2 = 0.5867
  viscosity: 15.4 ± 0.91 mPa·s
333.15 K, 101 kPa, x2 = 0
  viscosity: 28.6 ± 1.6 mPa·s
338.15 K, 101 kPa, x2 = 0
  viscosity: 24.6 ± 1.4 mPa·s
343.15 K, 101 kPa, x2 = 0.2189
  viscosity: 14.68 ± 0.87 mPa·s
343.15 K, 101 kPa, x2 = 0.3834
  viscosity: 12.15 ± 0.73 mPa·s
343.15 K, 101 kPa, x2 = 0.8744
  viscosity: 6.61 ± 0.42 mPa·s
348.15 K, 101 kPa, x2 = 0
  viscosity: 19.1 ± 1.1 mPa·s

## CCCCCCCCCCCCCC[P+](CCCC)(CCCC)CCCC.CCCCCCCCCCCCc1ccccc1S(=O)(=O)[O-] + CCCCCCCCCCCC
298.15 K, 101 kPa, x1 = 0.4402
  viscosity: 456 ± 24 mPa·s
303.15 K, 101 kPa, x1 = 0.4402
  viscosity: 325 ± 15 mPa·s
308.15 K, 101 kPa, x1 = 0.4844
  viscosity: 319 ± 15 mPa·s
313.15 K, 101 kPa, x1 = 0.354
  viscosity: 127 ± 5 mPa·s
313.15 K, 101 kPa, x1 = 0.4402
  viscosity: 180 ± 7 mPa·s
313.15 K, 101 kPa, x1 = 0.4844
  viscosity: 236 ± 10 mPa·s
318.15 K, 101 kPa, x1 = 0.6789
  viscosity: 596 ± 34 mPa·s
328.15 K, 101 kPa, x1 = 0.354
  viscosity: 59.1 ± 1.8 mPa·s
328.15 K, 101 kPa, x1 = 0.6789
  viscosity: 316 ± 15 mPa·s
338.15 K, 101 kPa, x1 = 0.354
  viscosity: 39.1 ± 1.2 mPa·s
338.15 K, 101 kPa, x1 = 0.4844
  viscosity: 65.1 ± 2 mPa·s
343.15 K, 101 kPa, x1 = 0.6789
  viscosity: 133 ± 5 mPa·s
353.15 K, 101 kPa, x1 = 0.6789
  viscosity: 86.1 ± 2.9 mPa·s

## CCCCCCCCCCCCOS(=O)(=O)[O-].[Na+] + CCCCCCCCCCCCCCCC[N+](C)(C)C.[Br-] + O
298.15 K, 101 kPa, frequency 0.001 MHz, x1 = 3e-08, x2 = 0
  electrical conductivity: 0.000305 ± 3.1e-05 S/m
298.15 K, 101 kPa, frequency 0.001 MHz, x1 = 1.029e-05, x2 = 0
  electrical conductivity: 0.00434 ± 0.00043 S/m
298.15 K, 101 kPa, frequency 0.001 MHz, x1 = 2.57e-05, x2 = 0
  electrical conductivity: 0.0104 ± 0.001 S/m
298.15 K, 101 kPa, frequency 0.001 MHz, x1 = 3.699e-05, x2 = 0
  electrical conductivity: 0.0155 ± 0.0016 S/m
298.15 K, 101 kPa, frequency 0.001 MHz, x1 = 5.034e-05, x2 = 0
  electrical conductivity: 0.0213 ± 0.0021 S/m
298.15 K, 101 kPa, frequency 0.001 MHz, x1 = 6.37e-05, x2 = 0
  electrical conductivity: 0.0264 ± 0.0026 S/m
298.15 K, 101 kPa, frequency 0.001 MHz, x1 = 7.295e-05, x2 = 0
  electrical conductivity: 0.0301 ± 0.003 S/m
298.15 K, 101 kPa, frequency 0.001 MHz, x1 = 8.321e-05, x2 = 0
  electrical conductivity: 0.0349 ± 0.0035 S/m
298.15 K, 101 kPa, frequency 0.001 MHz, x1 = 9.348e-05, x2 = 0
  electrical conductivity: 0.0392 ± 0.0039 S/m
298.15 K, 101 kPa, frequency 0.001 MHz, x1 = 0.0001038, x2 = 0
  electrical conductivity: 0.0422 ± 0.0042 S/m
298.15 K, 101 kPa, frequency 0.001 MHz, x1 = 0.000113, x2 = 0
  electrical conductivity: 0.0461 ± 0.0046 S/m
298.15 K, 101 kPa, frequency 0.001 MHz, x1 = 0.0001212, x2 = 0
  electrical conductivity: 0.051 ± 0.0051 S/m
298.15 K, 101 kPa, frequency 0.001 MHz, x1 = 0.0001315, x2 = 0
  electrical conductivity: 0.054 ± 0.0054 S/m
298.15 K, 101 kPa, frequency 0.001 MHz, x1 = 0.0001418, x2 = 0
  electrical conductivity: 0.0567 ± 0.0057 S/m
298.15 K, 101 kPa, frequency 0.001 MHz, x1 = 0.00015, x2 = 0
  electrical conductivity: 0.0607 ± 0.0061 S/m
298.15 K, 101 kPa, frequency 0.001 MHz, x1 = 0.0001582, x2 = 0
  electrical conductivity: 0.0631 ± 0.0063 S/m
298.15 K, 101 kPa, frequency 0.001 MHz, x1 = 0.0001665, x2 = 0
  electrical conductivity: 0.0649 ± 0.0065 S/m
298.15 K, 101 kPa, frequency 0.001 MHz, x1 = 0.0001737, x2 = 0
  electrical conductivity: 0.0661 ± 0.0066 S/m
298.15 K, 101 kPa, frequency 0.001 MHz, x1 = 0.000183, x2 = 0
  electrical conductivity: 0.0673 ± 0.0067 S/m
298.15 K, 101 kPa, frequency 0.001 MHz, x1 = 0.0001944, x2 = 0
  electrical conductivity: 0.0683 ± 0.0068 S/m
298.15 K, 101 kPa, frequency 0.001 MHz, x1 = 0.0002036, x2 = 0
  electrical conductivity: 0.0701 ± 0.007 S/m
298.15 K, 101 kPa, frequency 0.001 MHz, x1 = 0.000214, x2 = 0
  electrical conductivity: 0.0713 ± 0.0071 S/m
298.15 K, 101 kPa, frequency 0.001 MHz, x1 = 0.0002222, x2 = 0
  electrical conductivity: 0.0737 ± 0.0074 S/m
298.15 K, 101 kPa, frequency 0.001 MHz, x1 = 0.0002315, x2 = 0
  electrical conductivity: 0.075 ± 0.0075 S/m
298.15 K, 101 kPa, frequency 0.001 MHz, x1 = 0.0002408, x2 = 0
  electrical conductivity: 0.0771 ± 0.0077 S/m
298.15 K, 101 kPa, frequency 0.001 MHz, x1 = 0.0002521, x2 = 0
  electrical conductivity: 0.0792 ± 0.0079 S/m
298.15 K, 101 kPa, frequency 0.001 MHz, x1 = 0.0002625, x2 = 0
  electrical conductivity: 0.0801 ± 0.008 S/m
298.15 K, 101 kPa, frequency 0.001 MHz, x1 = 0.0002738, x2 = 0
  electrical conductivity: 0.0823 ± 0.0082 S/m
298.15 K, 101 kPa, frequency 0.001 MHz, x1 = 0.0002862, x2 = 0
  electrical conductivity: 0.0841 ± 0.0084 S/m

## CCCCCCCCCCCC[N+](C)(C)C.[Br-] + CCCCCCCCCCCCCCCC[n+]1ccn(C)c1.[Cl-] + O
303.15 K, 100 kPa, frequency 0.002 MHz, x2 = 0, x1 = 0.0001836
  electrical conductivity: 0.105 ± 0.0022 S/m
313.15 K, 100 kPa, frequency 0.002 MHz, x2 = 0, x1 = 0.0003475
  electrical conductivity: 0.207 ± 0.0043 S/m
323.15 K, 100 kPa, frequency 0.002 MHz, x2 = 0, x1 = 0.0001544
  electrical conductivity: 0.129 ± 0.0026 S/m

## CCCCCCCCCC(=O)O + CCCCCCCCCCCCCC[P+](CCCCCC)(CCCCCC)CCCCCC.[Cl-]
293 K, 100 kPa, x2 = 0.3333
  viscosity: 350 ± 140 mPa·s
298 K, 100 kPa, x2 = 0.3333
  viscosity: 260 ± 110 mPa·s
318 K, 100 kPa, x2 = 0.3333
  viscosity: 94 ± 38 mPa·s
328 K, 100 kPa, x2 = 0.3333
  viscosity: 63 ± 25 mPa·s
333 K, 100 kPa, x2 = 0.3333
  viscosity: 53 ± 21 mPa·s
